Assay results taken from ChEMBL document CHEMBL1121877, “Isomeric phenylthioimidazo[1,2-alpha]pyridines as anthelmintics” (1981).

How the values were obtained:
Format in all cases: functional
Mus musculus [1] = organism: Mus musculus; test: Compound (1000 p.p.m.) was tested for percent reduction of Nematospiroides dubius in mice
Mus musculus [2] = organism: Mus musculus; test: Compound (62.5 p.p.m.) was tested for percent reduction of Nematospiroides dubius in mice
Mus musculus [3] = organism: Mus musculus; test: Compound (250 p.p.m.) was tested for percent reduction of Nematospiroides dubius in mice
Mus musculus [4] = organism: Mus musculus; test: Compound (125 p.p.m.) was tested for percent reduction of Nematospiroides dubius in mice
Mus musculus [5] = organism: Mus musculus; test: Compound (500 p.p.m.) was tested for percent reduction of Nematospiroides dubius in mice

COC(=O)Nc1cn2c(Sc3ccccc3)cccc2n1
Reduction (Mus musculus [1]): 0%

COC(=O)Nc1cn2cc([S+]([O-])c3ccccc3)ccc2n1 (stereo not given)
Reduction (Mus musculus [2]): 90%
Reduction (Mus musculus [3]): 100%
Reduction (Mus musculus [4]): 100%

COC(=O)Nc1nc2cc(Sc3ccccc3)ccc2[nH]1 [FENBENDAZOLE]
Reduction (Mus musculus [2]): 0%
Reduction (Mus musculus [3]): 97%
Reduction (Mus musculus [4]): 74%
Reduction (Mus musculus [5]): 100%

COC(=O)Nc1cn2ccccc2n1
Reduction (Mus musculus [1]): 54%

COC(=O)Nc1cn2cc(Sc3ccccc3)ccc2n1
Reduction (Mus musculus [2]): 20%
Reduction (Mus musculus [3]): 98%
Reduction (Mus musculus [4]): 75%
Reduction (Mus musculus [5]): 100%

c1ccc2[nH]c(-c3cscn3)nc2c1 [THIABENDAZOLE]
Reduction (Mus musculus [2]): 0%
Reduction (Mus musculus [3]): 0%
Reduction (Mus musculus [1]): 87%
Reduction (Mus musculus [4]): 0%
Reduction (Mus musculus [5]): 47%

COC(=O)Nc1cn2ccc(Sc3ccccc3)cc2n1
Reduction (Mus musculus [1]): 0%

CC(C)OC(=O)Nc1ccc2[nH]c(-c3cscn3)nc2c1 [CAMBENDAZOLE]
Reduction (Mus musculus [2]): 0%
Reduction (Mus musculus [3]): 20%
Reduction (Mus musculus [1]): 100%
Reduction (Mus musculus [4]): 0%
Reduction (Mus musculus [5]): 80%

COC(=O)Nc1cn2cccc(Sc3ccccc3)c2n1
Reduction (Mus musculus [1]): 0%
